Results reported in US11933866B2, “Magnetic resonance maps for analyzing brain tissue” (Tel HaShomer Medical Research Infrastructure and Services …, priority 2013, dated 2024).

How the values were obtained:
[1] = system: glioblastoma; conditions: TMZ during radiotherapy and for six months post radiotherapy; cited from earlier work
[2] = system: glioblastoma; conditions: glioblastoma patients at progression after standard therapy; results of 2 studies; cited from earlier work
[3] = system: recurrent GBM; test: Conventional MRI and maps follow-up of a recurrent GBM patient on Bevacizumab (Example 3); assay type: in vivo, human; conditions: one patient, three months after initiation of Bevacizumab treatment
From the text: Referring now to FIG. 8, a person with recurrent GBM was recruited 7 month after diagnosis prior to initiation of Bevacizumab treatment. At diagnosis the patients was operated on and received chemoradiation followed by TMZ. Six months later, at progression, the patient underwent a second resection and was recruited to the present Bevacizumab study 1 month after the second surgery, prior to initiation of the Bevacizumab treatment. At this point their enhancing lesion consisted of nearly 50% tumor according to the maps. […] Following this scan the patient was treated with re-irradiation (in parallel with continuing Bevacizumab) and was stabilized. […] The patient lived another ˜7 months after this last MRI scan.

[4] = system: cerebellar metastasis of breast cancer; test: Delayed contrast extravasation MRI maps before and after Avastin treatment, patient case (Example 15); assay type: in vivo, human; conditions: one patient, 2 years after stereotactic radiosurgery; maps before vs after Avastin treatment
From the text: There is current dispute weather Avastin affects active tumor or only treatment effects.
A patient with cerebellar metastasis of breast cancer was recruited 2 years after stereotactic radiosurgery with suspected radiation necrosis.

For `Cn1nnc2c(C(N)=O)ncn2c1=O` [temozolomide], the additional toxicity [1] is listed as “minimal additional toxicity”.
In the case of Bevacizumab, the tumor size [2] is given as “reduced tumor size in some glioblastoma patients”, the “conventional MRI finding” value [3] is given as “showed improvement” and the “blue/tumor volume in the maps” value ([3]; consistent with clinical deterioration) is given as “significantly larger blue/tumor volume”. For the same molecule, the “response of tumor and radiation necrosis components in the maps” value [4] was “remarkable response of both components”.
